We go through 13 compounds from patent US20230203045A1, “INHIBITORS OF NEK7 KINASE” (Halia Therapeutics, Inc., priority 2020, published 2023).

One test has as its system IL-1β release. Nature of the test: IL-1β Release Assay. The test is classed as cell-based. To be noted: Homo sapiens; PMA-differentiated THP-1 cells, 250 ng/mL LPS then 20 μM nigericin; cleaved IL-1β in media; read-out: I1-1β release IC50. As for the experimental part:
Approximately 1.5 million THP-1 cells were plated in each well of a 6-well TC plate and incubated with 40 nM PMA in RPMI (10% FBS, 1% Penstrep) for 24 hours. The media was then removed and cells were rested in RPMI (10% FBS, 1% Penstrep) for 24 hours after which time the media was removed and cells were pre-treated for 2 hours with various concentrations of compounds of interest (typically serial 3-fold dilution in RPMI+5% FBS, concentrations ranging from 1 μM to 0.5 nM) in RPMI (5% FBS). The media was again removed and cells were incubated with 250 ng/mL LPS and compounds of interest (concentrations as above) in RMPI (5% FBS) for 2 hours. The media was removed for a last time and cells were incubated with 20 μM nigericin and compounds of interest (concentrations as above) in Opti-MEM for 30 minutes. Cell media was then collected and the amount of cleaved IL-1β was determined using a JESS instrument (Protein Simple) and standard protocols. Cleaved Il-1β antibody was obtained from Cell Signaling (catalogue #83186S) and was used at 1:20 dilution in antibody diluent 2. Protein Simple 1× anti-Rabbit HRP secondary antibody was used along with Protein Simple luminol and peroxide for chemiluminescent detection. Primary antibody incubation time was increased from 30 minutes to 60 minutes.

For test [1], the target named is T1, full-length recombinant human NEK7 (Homo sapiens, UniProt Q8TDX7).
T1 construct: full-length recombinant human NEK7; GST (N); purchased SignalChem Nab 09-10G; host or cells: Sf9 insect cells (baculovirus)
Nature of the test: NEK7 Enzymatic Assay. The test is classed as biochemical. The note with it: casein substrate, [33P]-ATP, 2 hours at room temperature. The protocol:
Casein substrate (from bovine milk, hydrolyzed and partially dephosphorylated mixture of α, β and κ caseins, obtained from Sigma Aldrich, catalogue #C4765, diluted in distilled water to a final concentration of 1 mg/mL) and full-length recombinant human NEK7 (expressed by baculovirus in Sf9 insect cells using a N-terminal GST tag, obtained from SignalChem, catalogue #Nab 09-10G, 0.1 μg/μL) were mixed in assay buffer (20 mM Hepes pH 7.5, 10 mM MgCl2, 1 mM EGTA, 0.02% Brij35, 0.02 mg/ml BSA, 0.1 mM Na3VO4, 2 mM DTT, 1% DMSO). Compounds of interest (serial 3-fold dilution in DMSO from 10 μM to 0.5 nM) or vehicle (1% DMSO) were dispensed into the kinase reaction mixture by Acoustic technology (Echo550; nanoliter range). After incubation at room temperature for 20 minutes, the kinase reaction was initiated by addition of [^33P]-ATP (specific activity 10 μCi/μl) and the mixture was incubated at room temperature for 2 hours. The reaction was then stopped by spotting the reaction mixture on strips of phosphocellulose P81 paper. Following washing, the radioactivity of the P81 paper was measured and kinase activity data were expressed as the percent remaining kinase activity in test samples compared to vehicle reactions. IC50 values and curve fits were obtained using Prism (GraphPad Software).

By IC50 is commonly meant the concentration at which inhibition is half-maximal.

Structures are written as SMILES.

T1 sequence (Q8TDX7 whole entry): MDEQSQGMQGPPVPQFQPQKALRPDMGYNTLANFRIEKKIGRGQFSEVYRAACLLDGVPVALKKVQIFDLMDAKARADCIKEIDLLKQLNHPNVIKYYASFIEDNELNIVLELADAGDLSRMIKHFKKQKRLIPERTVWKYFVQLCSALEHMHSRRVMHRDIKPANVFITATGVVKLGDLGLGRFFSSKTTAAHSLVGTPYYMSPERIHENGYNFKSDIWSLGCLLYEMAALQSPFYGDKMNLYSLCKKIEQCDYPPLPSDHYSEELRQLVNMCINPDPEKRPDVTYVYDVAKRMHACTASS

As for `CC(C)(C)c1cc(NC(=O)Nc2ccc(-c3nn(C4COC4)c4ncnc(N)c34)cc2F)on1` [Example 12, 1-(4-(4-amino-1-(oxetan-3-yl)-1H-pyrazolo[3,4-d]pyrimidin-3-yl)-2-fluorophenyl)-3-(3-(tert-butyl)isoxazol-5-yl)urea], the half-inhibitory concentration (IC50) in the test on IL-1β release was in the range of 0.051 to 0.2 µM. With `CC(C)(C)c1cc(NC(=O)Nc2ccc(-c3nn(C4CC4)c4ncnc(N)c34)cc2F)on1` [Example 13, 1-(4-(4-amino-1-cyclopropyl-1H-pyrazolo[3,4-d]pyrimidin-3-yl)-2-fluorophenyl)-3-(3-(tert-butyl)isoxazol-5-yl)urea], in the test on IL-1β release, the IC50 was below 0.05 µM. In the case of `CC(C)(C)c1cc(NC(=O)Nc2ccc(-c3nn(C4CCN(C5COC5)CC4)c4ncnc(N)c34)cc2F)on1` [Example 14, 1-(4-(4-amino-1-(1-(oxetan-3-yl)piperidin-4-yl)-1H-pyrazolo[3,4-d]pyrimidin-3-yl)-2-fluorophenyl)-3-(3-(tert-butyl)isoxazol-5-yl)urea], in the test on IL-1β release, the half-maximal inhibitory concentration (IC50) is below 0.05 µM.

Turning to `Nc1ncnc2c1c(-c1ccc(NC(=O)Nc3cc(C4(C(F)(F)F)CC4)no3)c(F)c1)nn2C1CC1` [Example 21, 1-(4-(4-amino-1-cyclopropyl-1H-pyrazolo[3,4-d]pyrimidin-3-yl)-2-fluorophenyl)-3-(3-(1-(trifluoromethyl)cyclopropyl)isoxazol-5-yl)urea], the IC50 in the test on IL-1β release was below 0.05 µM. For `Nc1ncnc2c1c(-c1ccc(NC(=O)Nc3cc(C4(C(F)(F)F)CC4)on3)c(F)c1)nn2C1CC1` [Example 25, 1-(4-(4-amino-1-cyclopropyl-1H-pyrazolo[3,4-d]pyrimidin-3-yl)-2-fluorophenyl)-3-(5-(1-(trifluoromethyl)cyclopropyl)isoxazol-3-yl)urea], in the test with IL-1β release, the IC50 was 0.051 to 0.2 µM.

Consider `CC(C)(C)c1cc(NC(=O)Nc2ccc(-c3nn(C4CC4)c4ccnc(N)c34)cc2F)on1` [Example 30, 1-(4-(4-amino-1-cyclopropyl-1H-pyrazolo[4,3-c]pyridin-3-yl)-2-fluorophenyl)-3-(3-(tert-butyl)isoxazol-5-yl)urea], for which the IC50 in the test with IL-1β release was below 0.05 µM. As to `CC1(c2cc(NC(=O)Nc3ccc(-c4nn(C5CC5)c5ncnc(N)c45)cc3F)on2)CC1` [Example 32, 1-(4-(4-amino-1-cyclopropyl-1H-pyrazolo[3,4-d]pyrimidin-3-yl)-2-fluorophenyl)-3-(3-(1-methylcyclopropyl)isoxazol-5-yl)], in the test with IL-1β release, the IC50 is 0.051 to 0.2 µM. As to `CC(C)(C)c1nnc(NC(=O)Nc2ccc(-c3nn(C4CC4)c4ncnc(N)c34)cc2F)s1` [Example 33, 1-(4-(4-amino-1-cyclopropyl-1H-pyrazolo[3,4-d]pyrimidin-3-yl)-2-fluorophenyl)-3-(5-(tert-butyl)-1,3,4-thiadiazol-2-yl)], the IC50 in test [1] is above 0.501 µM; with IL-1β release, 0.201 to 0.5 µM. As to `Nc1nccc2c1c(-c1ccc(NC(=O)Nc3cc(C4(C(F)(F)F)CC4)no3)c(F)c1)nn2C1CC1` [Example 45, 1-(4-(4-amino-1-cyclopropyl-1H-pyrazolo[4,3-c]pyridin-3-yl)-2-fluorophenyl)-3-(3-(1-(trifluoromethyl)cyclopropyl)isoxazol-5-yl)urea], the IC50 with IL-1β release was in the range of 0.051 to 0.2 µM. As for `Nc1ncnc2c1c(-c1ccc(NC(=O)Nc3cc(C4(C(F)(F)F)CC4)on3)nc1)nn2C1CC1` [Example 64, 1-(5-(4-amino-1-cyclopropyl-1H-pyrazolo[3,4-d]pyrimidin-3-yl)pyridin-2-yl)-3-(5-(1-(trifluoromethyl)cyclopropyl)isoxazol-3-yl)urea], the IC50 in test [1] lay in the range of 0.151 to 0.3 µM.

With `CC(C)(O)Cn1nc(-c2ccc(NC(=O)Nc3cc(C4(C(F)(F)F)CC4)no3)c(F)c2)c2c(N)ncnc21` [Example 66, 1-(4-(4-amino-1-(2-hydroxy-2-methylpropyl)-1H-pyrazolo[3,4-d]pyrimidin-3-yl)-2-fluorophenyl)-3-(3-(1-(trifluoromethyl)cyclopropyl)isoxazol-5-yl)urea], in test [1], the IC50 lay within 0.151 to 0.3 µM. As to `CC(C)(O)Cn1nc(-c2ccc(NC(=O)Nc3cc(C4(C(F)(F)F)CC4)on3)c(F)c2)c2c(N)ncnc21` [Example 67, 1-(4-(4-amino-1-(2-hydroxy-2-methylpropyl)-1H-pyrazolo[3,4-d]pyrimidin-3-yl)-2-fluorophenyl)-3-(5-(1-(trifluoromethyl)cyclopropyl)isoxazol-3-yl)urea], the IC50 in test [1] lay within 0.301 to 0.5 µM. On to `CN1CC(n2nc(-c3ccc(NC(=O)Nc4cc(C5(C(F)(F)F)CC5)on4)c(F)c3)c3c(N)ncnc32)C1` [Example 68, 1-(4-(4-amino-1-(1-methylazetidin-3-yl)-1H-pyrazolo[3,4-d]pyrimidin-3-yl)-2-fluorophenyl)-3-(5-(1-(trifluoromethyl)cyclopropyl)isoxazol-3-yl)urea], for which the IC50 in test [1] is above 0.501 µM.
